# Assay results taken from the supplement of paper PMC5844555.
# Assays:
# Experiment in all cases: 3' UTR reporter interaction score (median-centred robust z-score of log2 firefly/Renilla activity); higher = less repression of the 3' UTR reporter
# Conditions in all cases: HEK293T; 48 h
# [1] = system: BRCA2
# How it was run: (§1)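 For the interaction score, the firefly/Renilla ratio was log-transformed, expressed as a robust z-score per plate using median and median absolute deviation, and median-centred per miRNA; a more negative score indicates interaction. These scores come from at least two independent screens, averaged. Each screen used HEK293T cells at 10,000/well in 96-well plates, co-transfected with DharmaFECT Duo carrying 100 ng luc2P 3' UTR reporter, 20 ng pRL-TK and 2.5 pmol miRNA mimic, with luciferase read at 48 h.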
# [2] = system: TP53
# How it was run: as §1
# [3] = system: MYCN
# How it was run: as §1
# [4] = system: NOTCH1
# How it was run: as §1
# [5] = system: MYT1L
# How it was run: as §1
# [6] = system: PHF6
# How it was run: as §1
# [7] = system: HRAS
# How it was run: as §1
# [8] = system: MYB
# How it was run: as §1
# [9] = system: FBXW7
# How it was run: as §1
# [10] = system: ZEB2
# How it was run: as §1
# [11] = system: MYC
# How it was run: as §1
# [12] = system: PHOX2B
# How it was run: as §1
# [13] = system: RB1
# How it was run: as §1
# [14] = system: EZH2
# How it was run: as §1
Sequence,3' UTR reporter interaction score [1],3' UTR reporter interaction score [2],3' UTR reporter interaction score [3],3' UTR reporter interaction score [4],3' UTR reporter interaction score [5],3' UTR reporter interaction score [6],3' UTR reporter interaction score [7],3' UTR reporter interaction score [8],3' UTR reporter interaction score [9],3' UTR reporter interaction score [10],3' UTR reporter interaction score [11],3' UTR reporter interaction score [12],3' UTR reporter interaction score [13],3' UTR reporter interaction score [14]
UAUGUGGGAUGGUAAACCGCUU,-0.81,-0.352,0.212,0.24,-2.09,-0.864,-0.809,1.45,1.55,2.77,0.022,-0.0868,0.217,0.226
UAUUGCACUCGUCCCGGCCUC,0.27,-0.261,1.3,-1.13,-1.11,0.726,-0.467,0.69,-2.89,-1.97,0.586,1.55,0.116,-0.851
UAUUGCACUUGUCCCGGCCUG,1.75,0.235,1.23,-0.177,-1.81,0.0608,0.114,-1.54,-2.99,-2.03,0.754,0.517,1.41,-0.214
UAUUGCUUAAGAAUACGCGUAG,0.543,-0.087,0.474,-0.139,0.685,-1.32,0.147,-0.789,-1.25,0.0907,-0.116,-0.259,0.636,0.837
UCAAAUGCUCAGACUCCUGU,-3.48,-0.221,1.14,-0.149,-0.983,0.837,0.546,-3.31,0.918,-1,-0.559,0.0556,1.29,0.251
UCAAGAGCAAUAACGAAAAAUGU,0.701,0.338,-0.782,0.351,-2.38,0.162,-0.0915,-0.127,0.698,0.703,-0.189,-0.662,-2.16,-0.0128
UCACAAUGCUGACACUCAAACUGCUGAC,-3.53,-0.424,-0.126,-0.0831,0.647,0.399,-0.335,-0.419,0.257,-1.11,0.447,0.242,-0.143,0.195
UCACAGUGAACCGGUCUCUUUC,0.111,0.241,0.302,-0.749,0.655,-3.58,-0.688,-1.23,-1.67,-2.39,0.45,0.244,-0.537,0.78
UCACAGUGAACCGGUCUCUUUU,-0.31,0.412,1.36,-0.144,-2.56,1.79,-2.6,0.662,-1.07,-4.74,-0.0365,-1.31,1.15,0.47
UCAGAACAAAUGCCGGUUCCCAGA,-0.146,-1.5,0.0784,-0.509,-0.318,0.882,1.03,0.483,0.465,0.0144,0.178,-0.368,-0.316,0.61
UCAGGCUCAGUCCCCUCCCGAU,0.841,0.0121,-0.567,-0.181,-0.304,0.0613,-0.122,-1.88,0.573,1.33,0.0353,0.106,0.0824,0.0569
UCAGUCUCAUCUGCAAAGAAG,-0.924,-0.202,1.11,-1.13,-1.02,-0.895,1.08,-0.485,0.372,-0.368,0.794,0.237,0.581,1.71
UCAGUGCACUACAGAACUUUGU,-1.23,-0.523,0.963,0.169,1.34,0.792,-0.763,-1.33,0.473,1.75,0.0974,-0.0276,1.18,-0.364
UCAGUGCAUCACAGAACUUUGU,-1.11,-0.15,0.974,0.0134,1.61,0.428,-0.998,-1.04,0.15,1.9,0.216,-0.909,1.28,-0.211
UCAGUGCAUGACAGAACUUGGG,-0.0322,-0.341,0.0157,0.274,0.827,1.76,-1.05,-1.5,0.501,1.1,0.213,-1.31,-2.16,0.0466
UCCAGCAUCAGUGAUUUUGUUGA,0.64,-0.53,-0.105,-0.191,-0.429,0.0153,-0.335,0.387,-0.0681,0.915,-0.461,1.43,-0.243,0.0592
UCCAGCUCCUAUAUGAUGCCUUU,0.152,0.0762,-0.396,-1.09,-1.49,-0.704,-0.216,0.963,0.91,-2.75,0.624,-0.208,-0.767,0.255

Sequence,3' UTR reporter interaction score [1],3' UTR reporter interaction score [2],3' UTR reporter interaction score [3],3' UTR reporter interaction score [4],3' UTR reporter interaction score [5],3' UTR reporter interaction score [6],3' UTR reporter interaction score [7],3' UTR reporter interaction score [8],3' UTR reporter interaction score [9],3' UTR reporter interaction score [10],3' UTR reporter interaction score [11],3' UTR reporter interaction score [12],3' UTR reporter interaction score [13],3' UTR reporter interaction score [14]
UCCAGUACCACGUGUCAGGGCCA,0.581,-0.171,-3.01,0.223,0.747,-0.805,0.159,0.593,-1.35,0.742,-0.893,0.294,0.837,-1.44
UCCCACGUUGUGGCCCAGCAG,0.793,0.863,-0.504,0.591,-0.668,0.0798,-0.421,-0.00342,-0.0713,-0.736,0.28,-0.461,-2.41,0.303
UCCCUGAGACCCUAACUUGUGA,1.7,-1.15,0.264,-0.154,0.796,0.386,1.12,-0.19,-0.252,1.05,1.24,-1.65,-0.398,0.82
UCCCUGAGACCCUUUAACCUGUG,0.772,-3.91,-0.334,-0.719,0.364,1.62,1.12,-0.228,-0.449,0.152,0.131,-2.78,0.0838,1.1
UCCCUGUCCUCCAGGAGCUCA,-0.604,0.159,0.194,-0.622,-0.918,-1.54,0.998,0.312,0.105,-0.151,0.568,-1.29,-0.85,0.643
UCCGAGCCUGGGUCUCCCUCU,0.0314,0.107,-0.731,0.141,1.66,-0.194,-0.0807,-0.402,0.832,-0.318,-0.43,1.22,0.559,0.213
UCCGUCUCAGUUACUUUAUAGCC,1.46,1.13,-0.29,-0.0124,-0.738,2.5,-0.357,-1.75,-1.56,-2.24,0.0204,-0.906,0.307,0.571
UCCUGUACUGAGCUGCCCCGAG,-2.39,-0.164,0.364,-0.221,-1.49,-0.91,0.706,-1.33,0.155,-2.27,-0.142,1.42,-2.81,0.519
UCCUUCAUUCCACCGGAGUCUG,-0.488,-0.464,0.466,-0.263,1.34,0.83,-1.28,1.93,-0.512,-2.53,1.16,-0.547,0.813,0.832
UCGGAUCCGUCUGAGCUUGGCU,1.24,-0.412,1.3,0.076,-1.06,-0.555,1.22,-4.97,0.968,0.123,-0.287,-0.526,-0.185,1.84
UCGGGGAUCAUCAUGUCACGAG,0.268,-0.0214,-0.0751,-0.696,-0.88,1.52,-0.912,-0.226,0.568,1.06,-1.16,0.234,1.06,-0.077
UCGUACCGUGAGUAAUAAUGC,0.63,0.516,0.512,-1.54,-0.417,1.63,-0.495,-2.72,-0.162,0.34,-0.268,-1.05,-1.12,0.753
UCGUGCAUCCCUUUAGAGUGUU,0.369,-0.886,1.34,-0.139,-0.28,2.24,-0.817,-1.1,0.538,-1.93,-0.38,-0.719,1.71,0.153
UCGUGUCUUGUGUUGCAGCCG,-0.341,-0.142,0.852,-0.0902,-0.0239,-0.112,-0.272,0.669,-0.364,0.403,-0.116,-0.401,-0.468,0.0252
UCUACAAAGGGAAGCCCUUUCUG,0.423,-0.365,0.12,-0.427,0.66,0.0225,-0.0822,0.56,-0.547,-0.71,-0.127,-0.778,0.712,0.229
UCUACAGUGCACGUGUCU,-0.808,0.119,0.872,-0.268,0.894,-1.18,-0.193,0.507,-0.208,0,-0.224,1.13,0.634,-0.132
UCUAGGCUGGUACUGCUGA,-0.172,0.681,0.628,-0.326,0.751,-0.473,-0.226,0.874,0.217,0.447,-0.9,-0.185,-0.812,-0.385
